Laboratory results from patent publication US7635708B2, “Methods and pharmaceutical compositions for inhibiting tumor cell growth” (Dana-Farber Cancer Institute, priority 1996, dated 2009).
Like-named read-outs stand apart in the source and are kept apart here.

What was measured:
LS857 cells = experiment: Adipocyte differentiation of primary liposarcoma cells LS857; type: cell-based, human
Procedure: (§1) Primary liposarcoma cells were isolated from selected freshly harvested tumors as described previously (Fletcher, J. A. et al. (1991) NEJM 324:436-443) and references therein. Primary cells were plated at a density of at least 2×10^5 cells/ml and cultured in 60 mm dishes in RPMI containing 15% Cosmic Calf Serum (Hyclone) and 5 μ/ml insulin. […] The NIH-PPARγ and NIH-vector cells were derived by retroviral infection as described (Tontonoz, P. et al., (1994) supra). Differentiated cells were stained for neutral lipid with Oil Red-O (Green, H. and Kehinde, O. (1974) Cell 1:113-116). BrdU labeling was performed using the labeling kit (Boehringer Mannheim) according to the manufacturers instructions.
Liposarcomas have presumably acquired one or more genetic defects that interferes with the course of normal adipocyte development (Crozat, A. et al., (1993) Nature 363:640-644; Fletcher, J. A. et al., (1991) supra). […]
When cultured in the presence of fetal bovine serum and insulin, conditions permissive for adipocyte differentiation, all three cell lines maintain a fibroblastic morphology. […] This experiment was performed at least twice with each cell strain with quantitatively and qualitatively similar results. […]

NIH-PPARγ cells [1] = experiment: Adipocytic differentiation (percent lipid-containing cells) of NIH-PPARγ cells; type: cell-based
Procedure: (§2) BrdU labeling was performed using the labeling kit (Boehringer Mannheim) according to the manufacturers instructions.
(§3) Extent of adipocytic differentiation is indicated as the percentage of lipid-containing cells.

NIH-vector cells [2] = experiment: Adipocytic differentiation (percent lipid-containing cells) of NIH-vector cells; type: cell-based; conditions: for percent lipid-containing cells: NIH-vector, confluent cells, 7 days, 1 μM pioglitazone, 50 nM LG268
Procedure: as §1
We hypothesized that simultaneous exposure of competent cells to both PPARγ and R×R-specific ligands might provide a stronger adipogenic signal than a PPARγ ligand alone. The ability of the R×R-specific ligand LG268 to promote adipocyte differentiation was investigated using NIH-3T3 fibroblasts that express PPARγ from a retroviral vector (Tontonoz, P. et al. (1994) supra). We have previously shown that wild-type NIH-3T3 cells express R×Rα but not PPARγ. […] Similar results were obtained with the preadipocyte cell lines 3T3-L1 and 3T3-F442A which express both PPARγ and R×Rα (data not shown).
as §3

NIH-PPARγ cells [3] = conditions: at the concentrations used (pioglitazone 5 μM, BRL49653 1 μM)
Procedure: 48 hr after transfection viral supernatants were collected and NIH3T3 cells were infected at 50% confluence with equal titers of recombinant virus. The supernatants were applied to the cells in DMEM containing 10% cosmic calf serum (Hyclone) and 4 μg/ml of polybrene. 24 hr after infection, cells were split and plated in DMEM containing 10% calf serum and 2 μg/ml puromycin to select infected cells. NIH-3T3 cell lines infected with empty vector or with viral expression vectors containing wild type or mutant forms of PPARγ cDNA as well as HIB1B and 3T3-F442A cell lines were cultured in DMEM containing 10% cosmic calf serum.
The same number of NIH-PPARγ, NIH-vector or HIB1B cells were cultured either in the presence (+) or absence (−) of PPARγ ligands. Cell numbers were determined at the indicated time points. The effect of ligands on cell growth is represented as percentage decrease in cell numbers in the treated plates relative to untreated control plates.

[4] = tested on: primary liposarcoma cells; experiment: Adipocyte differentiation of primary cells isolated from three human liposarcomas (LS857, LS175, LS707); type: cell-based; conditions: 7 days (pioglitazone 10 μM)
Procedure: as §2
To address this possibility, primary cells isolated from three human liposarcomas were cultured in vitro (see Materials and Methods). Primary cell strains LS857 and LS175 were derived from well differentiated tumors and LS707 was derived from a myxoid tumor (see table 2). […] A primary leiomyosarcoma cell line LM203 was cultured as a control. To confirm that these cultures consisted of malignant tumor-derived cells, cytogenetic analysis was performed.

HIB1B cells [5] = experiment: Adipose cell tumors from HIB1B cells implanted in nude mice; type: in vivo; conditions: for Tumor volume (mean (SD)): 0.2% mixture with powder food
Procedure: HIB1B cells (2×10^6 cells/animal) were injected subcutaneously to the upper back of twenty four male nude mice (7 weeks NCR […]). Thirteen days after injection, mice were treated with troglitazone (0.2% mixture with powder food). The development of tumor volume (measured in mm^3) was determined at days 14, 19 and 26 after troglitazone treatment compared to untreated controls. Each point represents the mean±[…] (SD) from 12 mice (except the last point, where n=11) treated or untreated with troglitazone for the indicated time intervals. To evaluate changes in tumor size, mean (SD) from 11-12 cases for each group of animal were examined to ensure an 85% chance of detecting a statistically significant difference (assuming a 2-sided sample t-test). […] Points A-C and D-F represent untreated and troglitazone-treated animals, respectively. Each point represents the mean±standard deviation from 12 mice (except the last point, where n=11). Statistically significant decreases in tumor volume were detected in implanted mice treated with troglitazone compared to untreated controls. […] The tumor volume was determined after 14, 19 and 26 days of treatment. Volumes are indicated with and without outlier points in each group of animals. A comparison of the tumor volume by two-sided 2-sample t-test after 26 days of treatment indicates p=0.0019 (without outlier); p=0.037 (with outlier). To evaluate the tumor increase over time, repeated measures analysis of variance were determined, p=0.0014 without outlier; p=0.044 with outlier.

NIH-vector cells [6] = experiment: BrdU incorporation, NIH-vector cells; type: cell-based
From the text: (§4) […]. […] […].

HIB1B cells [7] = experiment: BrdU incorporation, HIB1B cells; type: cell-based, mice
From the text: as §4

3T3-F442A preadipocytes = experiment: BrdU incorporation, 3T3-F442A preadipocytes; type: cell-based
From the text: as §4

LS175 cells = experiment: Adipocyte differentiation of primary liposarcoma cells LS175; type: cell-based, human; conditions: 10 μM, 7 days
[8] = tested on: LM203 lieomyosarcoma cells; experiment: Lipid accumulation in primary leiomyosarcoma cell line LM203 (control); type: cell-based, human; conditions: which do not express PPARγ
aP2 and adipsin = experiment: Northern analysis of adipocyte-specific markers in LS857 liposarcoma cells; type: cell-based, human; conditions: Northern blotting
[9] = tested on: human liposarcoma cells (LS 857); experiment: BrdU labeling and lipid staining of LS857 liposarcoma cells after induced differentiation (growth arrest); type: cell-based
NIH-PPARγ cells [10] = tested on: NIH-PPARγ cells
Procedure: BrdU incorporation experiment was performed as described in the protocol provided by the supplier (Boehringer Mannheim Biochemical). Briefly, cells grown on coverslips were labeled with 10 μM BrdU for 1 hr. Samples were washed and fixed with ethanol-glycine buffer and incubated with anti-BrdU monoclonal antibody. After incubation with anti-mouse-Ig-alkaline phosphatase followed by the substrate reaction, bound anti-BrdU antibody was visualized by light microscopy.
Cells undergoing DNA synthesis during exposure to BrdU were determined by immunohistochemical staining and considered as BrdU positive. The data represents the average of two independent experiments in which approximately 400 cells were counted per sample.

[11] = LS857, pioglitazone withdrawn 48 hours, then BrdU 48 hours

Cc1cc2c(cc1C1(c3ccc(C(=O)O)cn3)CC1)C(C)(C)CCC2(C)C [LG268]
adipocyte differentiation of LS857 cells (LS857 cells; 50 nM LG268, 10 μM pioglitazone, alone or simultaneously): significant degree of adipocyte differentiation
percent lipid-containing cells (NIH-PPARγ cells [1]; NIH-PPARγ, confluent cells, 7 days, 1 μM pioglitazone, 50 nM LG268): 50-65%
stimulation of adipocyte differentiation (NIH-PPARγ cells [1]; confluent NIH-PPARγ cells, 7 days, 50 nM LG268, 1 μM pioglitazone): significant stimulation of adipocyte differentiation
adipogenic effect on NIH-vector cells (NIH-vector cells [2]; NIH-vector cells): no effect
percent lipid-containing cells (NIH-vector cells [2]): 0%

CN(CCOc1ccc(CC2SC(=O)NC2=O)cc1)c1ccccn1 (stereo not shown) [BRL49653, rosiglitiazone]
cytotoxic effects (NIH-PPARγ cells [3]): No obvious cytotoxic effects

Cc1c(C)c2c(c(C)c1O)CCC(C)(COc1ccc(CC3SC(=O)NC3=O)cc1)O2 (stereo not shown) [troglitazone, 5-[[4-[(3,4-dihydro-6-hydroxy-2,5,7,8-tetramethyl-2H-1-benzopyran-2-yl)methoxy]phenyl]methyl]-2,4-thiazolidinedione]
induction of differentiation (lipid accumulation, adipocyte morphology) [4]: Induction of differentiation was also observed
size of adipose tumors in nude mice compared to untreated controls (HIB1B cells [5]; 14, 19 and 26 days of treatment): effective in reducing the size of adipose tumors
Tumor volume (mean (SD)) (HIB1B cells [5]; 14 days of treatment, w outlier): 403(182) mm^3
Tumor volume (mean (SD)) (HIB1B cells [5]; 14 days of treatment, w/o outlier): 361(110) mm^3
Tumor volume (mean (SD)) (HIB1B cells [5]; 19 days of treatment, w outlier): 990(665) mm^3
Tumor volume (mean (SD)) (HIB1B cells [5]; 19 days of treatment, w/o outlier): 830(389) mm^3
Tumor volume (mean (SD)) (HIB1B cells [5]; 26 days of treatment, w outlier): 2601(2270) mm^3
Tumor volume (mean (SD)) (HIB1B cells [5]; 26 days of treatment, w/o outlier): 2032(1179) mm^3

CCc1ccc(CCOc2ccc(CC3SC(=O)NC3=O)cc2)nc1 (stereo not shown) [pioglitazone, 5-[4-[2-(5-ethyl-2-pyridyl)-ethoxy]benzyl]-2,4-thiazolidinedione]
change of BrdU incorporation rate (NIH-vector cells [6]; NIH-vector cells, 5 days of treatment): did not change
BrdU positive % (NIH-vector cells [6]; NIH-vector, 5 μM pioglitazone for 5 days, BrdU pulse 1 hour): 43%
BrdU positive % (HIB1B cells [7]; 5 μM pioglitazone for 5 days, BrdU pulse 1 hour): 11%
decrease of BrdU incorporation into newly synthesized DNA (HIB1B cells [7]; after 5 days of treatment): 85%
decrease in the BrdU incorporation rate (3T3-F442A preadipocytes; 3T3-F442A preadipocytes, after 5 days of treatment): 80%
BrdU positive % (3T3-F442A preadipocytes; 3T3-F442A, 5 μM pioglitazone for 5 days, BrdU pulse 1 hour): 14%
degree of morphologically recognizable differentiation (LS857 cells; LS 857 cells, 10 μM, 7 days): 40%
degree of morphologically recognizable differentiation (LS175 cells): 75%
induction of differentiation (lipid accumulation, adipocyte morphology) [4]: readily accumulated lipid and adopted a morphology characteristic of mature cultured adipocytes
lipid accumulation [8]: No lipid accumulation
percent lipid-containing cells (NIH-PPARγ cells [1]): 60-70%
percent lipid-containing cells (NIH-vector cells [2]): 0%
induction of the mRNAs encoding aP2 and adipsin (aP2 and adipsin): induction of two markers of terminal adipocyte differentiation
cells containing lipid that stain positive for BrdU ([9]; LS857, of those cells containing lipid): 2%
cells containing visible cytoplasmic lipid [9, 11]: 35%
cells stained positive for BrdU incorporation [9, 11]: 28%
BrdU positive % (NIH-PPARγ cells [10]): 9%
